Toxic doses and inconclusive results are not listed. Rule as the data show it: active = T/C of 150% or more; inactive = T/C below 125%.
System: L1210 leukemia ip in BDF1 mice, survival T/C
Experiment: NCI In Vivo Anticancer Drug Screen. Data for tumor model L1210 Leukemia (intraperitoneal) in B6D2F1 (BDF1) mice
Details: endpoint: mean survival time, higher = longer survival
Summary of the method: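 Transplantable tumor model; survival measured in treated vs vehicle control mice. Value = treated/control.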

[1] = dose: 100.0 mg/kg/injection, schedule: Q04DX002 (ip), vehicle: saline with Tween-80
[2] = dose: 400.0 mg/kg/injection, schedule: Q04DX002 (ip), vehicle: saline with Tween-80

Measured: T/C

COc1ccc(-n2c(O)c(N=Nc3ccccc3C)c(=O)n(-c3ccccc3)c2=S)cc1
inactive: dose: 37.5 mg/kg/injection, schedule: Q01DX001 (ip), vehicle: Klucel (hydroxypropylcellulose) (HPC) 103 % of control | dose: 75.0 mg/kg/injection, schedule: Q01DX001 (ip), vehicle: Klucel (hydroxypropylcellulose) (HPC) 97 % of control | dose: 150.0 mg/kg/injection, schedule: Q01DX001 (ip), vehicle: Klucel (hydroxypropylcellulose) (HPC) 94 % of control

C=C1C=C(C)N(C(C)=O)CCN1C(C)=O
inactive: dose: 100.0 mg/kg/injection, schedule: Q01DX009 (ip), vehicle: saline 95 % of control | dose: 200.0 mg/kg/injection, schedule: Q01DX009 (ip), vehicle: saline 92 % of control | dose: 400.0 mg/kg/injection, schedule: Q01DX009 (ip), vehicle: saline 90 % of control

N#CCCN(CCCN1CCOCC1)C(=S)Nc1cccc(C(F)(F)F)c1
inactive: [1] 92 % of control | [2] 100 % of control

O=C(COc1ccccc1)c1ccccc1
inactive: dose: 12.5 mg/kg/injection, schedule: Q04DX002 (ip), vehicle: Klucel (hydroxypropylcellulose) (HPC) 93 % of control | dose: 25.0 mg/kg/injection, schedule: Q04DX002 (ip), vehicle: Klucel (hydroxypropylcellulose) (HPC) 104 % of control | dose: 50.0 mg/kg/injection, schedule: Q04DX002 (ip), vehicle: Klucel (hydroxypropylcellulose) (HPC) 96 % of control | dose: 200.0 mg/kg/injection, schedule: Q04DX002 (ip), vehicle: Klucel (hydroxypropylcellulose) (HPC) 95 % of control

Nc1ccc2cc(S(=O)(=O)O)cc(S(=O)(=O)O)c2c1 (tested in a mixture with another compound)
inactive: dose: 80.0 mg/kg/injection, schedule: Q01DX Z (ip), vehicle: saline 97 % of control | dose: 170.0 mg/kg/injection, schedule: Q01DX Z (ip), vehicle: saline 96 % of control

CC1CC2OC(=O)C(O)(CO)C2CC2(C)C(=O)C=CC12 (stereo unspecified)
inactive: dose: 25.0 mg/kg/injection, schedule: Q04DX002 (ip), vehicle: saline 102 % of control | dose: 50.0 mg/kg/injection, schedule: Q04DX002 (ip), vehicle: saline 124 % of control | dose: 100.0 mg/kg/injection, schedule: Q04DX002 (ip), vehicle: saline 120 % of control

ClC1=C(Br)C(Br)(Br)C(=C(Br)Br)C1(Br)Br
inactive: dose: 100.0 mg/kg/injection, schedule: Q01DX009 (ip), vehicle: saline sonified 96 % of control | dose: 100.0 mg/kg/injection, schedule: Q04DX003 (ip), vehicle: Klucel (hydroxypropylcellulose) (HPC) 106 % of control | dose: 200.0 mg/kg/injection, schedule: Q01DX009 (ip), vehicle: saline sonified 94 % of control | dose: 200.0 mg/kg/injection, schedule: Q04DX003 (ip), vehicle: Klucel (hydroxypropylcellulose) (HPC) 103 % of control | dose: 400.0 mg/kg/injection, schedule: Q01DX009 (ip), vehicle: saline sonified 102 % of control | dose: 400.0 mg/kg/injection, schedule: Q04DX003 (ip), vehicle: Klucel (hydroxypropylcellulose) (HPC) 97 % of control

CC(C)c1oc(=O)cc2c1[C@@H](O)[C@H]1OC(=O)[C@@]3(C)[C@@H](O)[C@H]4O[C@H]4[C@@]2(C)[C@@H]13
inactive: dose: 5.0 mg/kg/injection, schedule: Q01DX001 (ip), vehicle: steriod suspending solution 105 % of control | dose: 10.0 mg/kg/injection, schedule: Q01DX001 (ip), vehicle: steriod suspending solution 98 % of control | dose: 20.0 mg/kg/injection, schedule: Q01DX001 (ip), vehicle: steriod suspending solution 110 % of control | dose: 40.0 mg/kg/injection, schedule: Q01DX001 (ip), vehicle: steriod suspending solution 104 % of control

CC(=O)OCCC/C(=C\c1c2ccccc2cc2ccccc12)[N+](=O)[O-]
inactive: dose: 100.0 mg/kg/injection, schedule: Q01DX001 (ip), vehicle: carboxymethylcellulose (CMC) 94 % of control | dose: 200.0 mg/kg/injection, schedule: Q01DX001 (ip), vehicle: carboxymethylcellulose (CMC) 94 % of control | dose: 400.0 mg/kg/injection, schedule: Q01DX001 (ip), vehicle: carboxymethylcellulose (CMC) 96 % of control

Cc1nc(N)[nH]c(=O)c1CCCCCN
inactive: dose: 100.0 mg/kg/injection, schedule: Q04DX003 (ip), vehicle: saline 101 % of control | dose: 200.0 mg/kg/injection, schedule: Q04DX003 (ip), vehicle: saline 106 % of control | dose: 400.0 mg/kg/injection, schedule: Q04DX003 (ip), vehicle: saline 100 % of control

[CH3][Sn]([c]1ccccc1)([c]1ccccc1)[c]1ccccc1
inactive: [1] 91 % of control | dose: 200.0 mg/kg/injection, schedule: Q04DX002 (ip), vehicle: saline with Tween-80 95 % of control | [2] 103 % of control
